Each structure is given as a SMILES string.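 Where inhibition never reached the appropriate level, the endpoint shown equals the highest concentration tested. Otherwise, values were interpolated linearly from a five-concentration, 48-hour dose response in 96-well plates. TGI is the concentration that stops growth completely.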

Test systems include DU-145 prostate; EKVX NSCLC; HCT-15 colon; HS 578T breast; HT29 colon; KM12 colon; MCF7 breast; NCI-H23 lung; NCI-H460 lung; OVCAR-3 ovarian; PC-3 prostate; RXF 393 renal; SF-268 CNS; SW-620 colon; UO-31 renal; HCC-2998 colon; MALME-3M melanoma; SF-539 CNS; SNB-75 CNS.
Common to all, as to experiment: DTP human tumour cell line panel, 48 h

Consider `CCc1n[nH]c(=O)n1/N=C(\C)c1ccc([N+](=O)[O-])cc1`, for which the TGI in the assay on DU-145 prostate, with EKVX NSCLC, in the assay with HCT-15 colon, in the assay with HS 578T breast, in the assay with HT29 colon and with KM12 colon was over 100 µM each time. The TGI with MCF7 breast, in the assay with NCI-H23 lung, with NCI-H460 lung, in the assay with OVCAR-3 ovarian, in the assay on PC-3 prostate and with RXF 393 renal was over 100 µM in each case. Moreover, the TGI in the assay with SF-268 CNS, in the assay on SW-620 colon and in the assay with UO-31 renal was over 100 µM each time.

As to `CC[C@]12C=CCN3CCC4(c5cc([C@@]6(C(=O)OC)CC7CN(CCc8c6[nH]c6ccccc86)C[C@@H]6CCCC[C@H]76)c(OC)cc5N(C)C4[C@](O)(C(=O)OC)C1OC(C)=O)[C@@H]32` (stereo partly drawn), the TGI was 14.8 µM in the assay with DU-145 prostate; 22.8 µM in the assay with EKVX NSCLC; under 0.01 µM in the assay with HCC-2998 colon; 12.5 µM with HCT-15 colon; under 0.01 µM in the assay with HS 578T breast; under 0.01 µM with HT29 colon. The TGI in the assay with MALME-3M melanoma was 4.95 µM; in the assay on NCI-H23 lung it was under 0.01 µM; in the assay with NCI-H460 lung it was 0.0425 µM; with PC-3 prostate, under 0.01 µM; in the assay on SF-268 CNS, 16.5 µM; in the assay on SF-539 CNS, under 0.01 µM. The TGI in the assay on SW-620 colon turned out to be 16 µM; in the assay with UO-31 renal it was 8.58 µM.

On to `Cc1ccc(Cc2nn(C)c(=O)n2N)cc1`, for which the TGI with DU-145 prostate, with EKVX NSCLC, in the assay on HCC-2998 colon, with HCT-15 colon, in the assay on HT29 colon and in the assay with KM12 colon was over 100 µM throughout. In addition, the TGI with MCF7 breast, in the assay on NCI-H23 lung, in the assay with NCI-H460 lung, in the assay on OVCAR-3 ovarian, in the assay on PC-3 prostate and with SF-539 CNS was over 100 µM throughout. Besides, the TGI with SW-620 colon and in the assay with UO-31 renal was over 100 µM throughout.

With `COC1(C)C(=O)N2C1N(C(=O)OC(C)(C)C)CC2(C)C` (stereo not drawn), the TGI with EKVX NSCLC, in the assay on HCC-2998 colon, in the assay with HCT-15 colon, with HT29 colon, in the assay with KM12 colon and in the assay on MALME-3M melanoma was over 100 µM in each case. The TGI in the assay with NCI-H23 lung, with NCI-H460 lung, in the assay with OVCAR-3 ovarian, in the assay on RXF 393 renal, in the assay with SF-268 CNS and in the assay on SF-539 CNS was over 100 µM each time. In addition, the figures for the TGI in the assay with SNB-75 CNS, in the assay on SW-620 colon and in the assay on UO-31 renal were over 100 µM, 37.5 µM and over 100 µM, respectively.

Take `CC(=O)Nc1ccc(C(=O)NN2C(=O)CSC2c2ccc(O)cc2)cc1` (stereo not drawn): the TGI in the assay on DU-145 prostate, with EKVX NSCLC, with HCC-2998 colon, in the assay with HCT-15 colon, in the assay on HS 578T breast and in the assay on HT29 colon was over 100 µM each time. Besides, the TGI in the assay with KM12 colon, in the assay with MCF7 breast, in the assay on NCI-H23 lung, in the assay with NCI-H460 lung, with OVCAR-3 ovarian and in the assay on RXF 393 renal was over 100 µM in each case. For the same compound, the TGI with SF-268 CNS, in the assay with SF-539 CNS, with SNB-75 CNS, with SW-620 colon and with UO-31 renal was over 100 µM each time.

In the case of `CC(C)(Oc1ccc(Cl)cc1)C(=O)N(C(=O)N1CCCCC1)c1ccccc1`, the concentration for total growth inhibition (TGI) was found to be 27.8 µM in the assay on DU-145 prostate; 21.9 µM in the assay on EKVX NSCLC; 24.6 µM in the assay on HCT-15 colon; 58.5 µM in the assay with HS 578T breast; 66.1 µM with HT29 colon; 41.2 µM in the assay on KM12 colon. The TGI in the assay with MALME-3M melanoma was 85.2 µM; in the assay on MCF7 breast, 47.3 µM; in the assay with NCI-H23 lung, 33.1 µM; with OVCAR-3 ovarian, 75.1 µM; in the assay with PC-3 prostate it was 20 µM; in the assay on RXF 393 renal, 33.3 µM. The TGI in the assay with SF-268 CNS was 56.7 µM; with SF-539 CNS, 25.3 µM; in the assay on SW-620 colon, over 100 µM; in the assay on UO-31 renal, 42 µM.

`O=C(Oc1c(Cl)cc(C2(c3cc(Cl)c(OC(=O)c4ccccc4)c(Cl)c3)CCCCC2)cc1Cl)c1ccccc1`: the TGI in the assay on DU-145 prostate worked out at 36.7 µM; in the assay on EKVX NSCLC it was 24.9 µM; in the assay with HCC-2998 colon, 22.9 µM; with HCT-15 colon, 24.6 µM; in the assay on HS 578T breast it was 32.4 µM; in the assay with HT29 colon it was 30 µM. Moreover, the total growth inhibition concentration (TGI) is 23.9 µM in the assay on KM12 colon; 25.2 µM with MCF7 breast; 23.4 µM with NCI-H23 lung; 26.1 µM in the assay with NCI-H460 lung; 27.9 µM with OVCAR-3 ovarian; 21.3 µM with PC-3 prostate. Moreover, the TGI worked out at 25.9 µM in the assay with RXF 393 renal; 27.2 µM in the assay with SF-268 CNS; 29.2 µM with SF-539 CNS; 26.9 µM in the assay with SNB-75 CNS; 39.5 µM in the assay with SW-620 colon; 35.3 µM in the assay on UO-31 renal.

Regarding `CC(C)(C)c1ccc2c(c1)C#Cc1cc(C(C)(C)C)ccc1OCCCO2`, the TGI in the assay with DU-145 prostate, in the assay on EKVX NSCLC, with HCT-15 colon, in the assay with HS 578T breast, in the assay on HT29 colon and in the assay with KM12 colon was over 100 µM in each case. Moreover, the total growth inhibition concentration (TGI) with MALME-3M melanoma, in the assay on MCF7 breast, in the assay on NCI-H23 lung, with NCI-H460 lung, in the assay on OVCAR-3 ovarian and in the assay on PC-3 prostate was over 100 µM throughout. Moreover, the TGI in the assay with RXF 393 renal, with SF-268 CNS, with SW-620 colon and in the assay on UO-31 renal was over 100 µM throughout.

Take `c1cc2nnsc2s1`: the TGI in the assay on EKVX NSCLC, in the assay on HCC-2998 colon, in the assay on HCT-15 colon, with HT29 colon, in the assay with KM12 colon and in the assay on MALME-3M melanoma was over 100 µM each time. Moreover, the TGI in the assay with NCI-H23 lung, in the assay on NCI-H460 lung, with SF-268 CNS, in the assay with SF-539 CNS, with SNB-75 CNS and in the assay on SW-620 colon was over 100 µM throughout. The compound further registered a concentration for total growth inhibition (TGI) in the assay on UO-31 renal of over 100 µM.

By TGI is commonly meant the concentration giving total growth inhibition. A higher TGI goes with lower sensitivity of the cells.

The values are drawn from PubChem BioAssay (NCI).
